How the values were obtained:
Dasatinib = compound: CC1=C(C(=CC=C1)Cl)NC(=O)C2=CN=C(S2)NC3=CC(=NC(=N3)C)N4CCN(CC4)CCO [Dasatinib]; settings: max 2 µM
Method in brief: (§1)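 Cancer cell lines were seeded into 1536-well plates in 7.5 μl medium (DMEM/F12 or RPMI, 10% FBS), held 24 hours at 37°C and 5% CO2, and dosed for 72 hours with final DMSO typically 0.2%. Luminescence from CellTiter-Glo 2.0, scaled between blank-well and DMSO-well means, served as viability. The single-agent IC50 was obtained from dose-response fits with a non-linear mixed effects model, each fit being a two-parameter logistic curve.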

Gemcitabine = compound: Nc1ccn([C@@H]2O[C@H](CO)[C@@H](O)C2(F)F)c(=O)n1 [Gemcitabine]; settings: max 0.3 µM
Method in brief: as §1

Alisertib = compound: COc1cc(Nc2ncc3c(n2)-c2ccc(Cl)cc2C(c2c(F)cccc2OC)=NC3)ccc1C(=O)O [Alisertib]; settings: max 10 µM
Method in brief: as §1

SG3199 = compound: CC1=CN2[C@@H](C1)C=NC3=CC(=C(C=C3C2=O)OC)OCCCCCOC4=C(C=C5C(=C4)N=C[C@@H]6CC(=CN6C5=O)C)OC [SG3199]; settings: max 0.001 µM
Method in brief: as §1

MK-2206 = compound: NC1(c2ccc(-c3nc4ccn5c(=O)[nH]nc5c4cc3-c3ccccc3)cc2)CCC1 [MK-2206]; settings: max 10 µM
Method in brief: as §1

Paclitaxel = compound: CC(=O)O[C@H]1C(=O)[C@@]2(C)[C@H]([C@H](OC(=O)c3ccccc3)[C@]3(O)C[C@H](OC(=O)[C@H](O)[C@@H](NC(=O)c4ccccc4)c4ccccc4)C(C)=C1C3(C)C)[C@]1(OC(C)=O)CO[C@@H]1C[C@@H]2O [Paclitaxel]; settings: max 3 µM
Method in brief: as §1

AZD1390 = compound: CC(C)n1c(=O)n(C)c2cnc3cc(F)c(-c4ccc(OCCCN5CCCCC5)nc4)cc3c21 [AZD1390]; settings: max 0.3 µM
Method in brief: as §1

Olaparib = compound: O=C(c1cc(Cc2n[nH]c(=O)c3ccccc23)ccc1F)N1CCN(C(=O)C2CC2)CC1 [Olaparib]; settings: max 10 µM
Method in brief: as §1

Doxorubicin = compound: COc1cccc2c1C(=O)c1c(O)c3c(c(O)c1C2=O)C[C@@](O)(C(=O)CO)C[C@@H]3O[C@H]1C[C@H](N)[C@H](O)[C@H](C)O1 [Doxorubicin]; settings: max 1 µM
Method in brief: as §1

AZD5991 = compound: Cc1c2c(nn1C)CSCc1cc(n(C)n1)CSc1cc(c3ccccc3c1)OCCCc1c(C(=O)O)n(C)c3c-2c(Cl)ccc13 [AZD5991]; settings: max 1 µM
Method in brief: as §1

Selumetinib = compound: Cn1cnc2c(F)c(Nc3ccc(Br)cc3Cl)c(C(=O)NOCCO)cc21 [Selumetinib]; settings: max 10 µM
Method in brief: as §1

Venetoclax = compound: CC1(C)CCC(CN2CCN(c3ccc(C(=O)NS(=O)(=O)c4ccc(NCC5CCOCC5)c([N+](=O)[O-])c4)c(Oc4cnc5[nH]ccc5c4)c3)CC2)=C(c2ccc(Cl)cc2)C1 [Venetoclax]; settings: max 1 µM
Method in brief: as §1

SN-38 = compound: CCc1c2c(nc3ccc(O)cc13)-c1cc3c(c(=O)n1C2)COC(=O)[C@]3(O)CC [SN-38]; settings: max 0.3 µM
Method in brief: as §1

Gefitinib = compound: COc1cc2ncnc(Nc3ccc(F)c(Cl)c3)c2cc1OCCCN1CCOCC1 [Gefitinib]; settings: max 10 µM
Method in brief: as §1

AZD5153 = compound: COc1nnc2ccc(N3CCC(c4ccc(OCCN5CCN(C)C(=O)[C@H]5C)cc4)CC3)nn12 [AZD5153]; settings: max 1 µM
Method in brief: as §1

[1] = compound: O=C(Nc1ccc2[nH]nc(-c3ccncc3)c2c1)[C@@H]1CCN(CC(=O)N2CCN(c3ccc(-c4ncccn4)cc3)CC2)C1; settings: max 5 µM
Method in brief: as §1

Etoposide = compound: COc1cc([C@@H]2c3cc4c(cc3[C@@H](O[C@@H]3O[C@@H]5CO[C@@H](C)O[C@H]5[C@H](O)[C@H]3O)[C@H]3COC(=O)[C@H]23)OCO4)cc(OC)c1O [Etoposide]; settings: max 10 µM
Method in brief: as §1

Prexasertib = compound: COc1cccc(OCCCN)c1-c1cc(Nc2cnc(C#N)cn2)n[nH]1 [Prexasertib]; settings: max 1 µM
Method in brief: as §1

AZD0156 = compound: CN(C)CCCOc1ccc(-c2ccc3ncc4c(c3c2)n(C2CCOCC2)c(=O)n4C)cn1 [AZD0156]; settings: max 3 µM
Method in brief: as §1

SRA737 = compound: N#Cc1cnc(Nc2cc(NC[C@H]3CNCCO3)c(C(F)(F)F)cn2)cn1 [SRA737]; settings: max 10 µM
Method in brief: as §1

Lapatinib = compound: CS(=O)(=O)CCNCc1ccc(-c2ccc3ncnc(Nc4ccc(OCc5cccc(F)c5)c(Cl)c4)c3c2)o1 [Lapatinib]; settings: max 10 µM
Method in brief: as §1

Taselisib = compound: Cc1nc(-c2cn3c(n2)-c2ccc(-c4cnn(C(C)(C)C(N)=O)c4)cc2OCC3)n(C(C)C)n1 [Taselisib]; settings: max 10 µM
Method in brief: as §1

Trametinib = compound: CC(=O)Nc1cccc(-n2c(=O)n(C3CC3)c(=O)c3c(Nc4ccc(I)cc4F)n(C)c(=O)c(C)c32)c1 [Trametinib]; settings: max 1 µM
Method in brief: as §1

AZD2811 = compound: CCN(CCO)CCCOc1ccc2c(Nc3cc(CC(=O)Nc4cccc(F)c4)[nH]n3)ncnc2c1 [AZD2811]; settings: max 1 µM
Method in brief: as §1

AZD1775 = compound: C=CCn1c(=O)c2cnc(Nc3ccc(N4CCN(C)CC4)cc3)nc2n1-c1cccc(C(C)(C)O)n1 [AZD1775]; settings: max 3 µM
Method in brief: as §1

AZD4320 = compound: CN(CC[C@H](CSC1=CC=CC=C1)NC2=C(C=C(C=C2)S(=O)(=O)NC(=O)C3=CC=C(C=C3)N4CCC(CC4)[C@H](C5=CC=CC=C5C6=CC=C(C=C6)Cl)O)S(=O)(=O)C(F)(F)F)CCO [AZD4320]; settings: max 1 µM
Method in brief: as §1

AZD5363 = compound: C1CN(CCC1(C(=O)N[C@@H](CCO)C2=CC=C(C=C2)Cl)N)C3=NC=NC4=C3C=CN4 [AZD5363]; settings: max 10 µM
Method in brief: as §1

AZD6738 = compound: C[C@@H]1COCCN1C2=NC(=NC(=C2)C3(CC3)[S@](=N)(=O)C)C4=C5C=CNC5=NC=C4 [AZD6738]; settings: max 10 µM
Method in brief: as §1

Carboplatin = compound: C1CC(C1)(C(=O)[O-])C(=O)[O-].N.N.[Pt+2] [Carboplatin]; settings: max 10 µM
Method in brief: as §1

5-Fluorouracil = compound: O=c1[nH]cc(F)c(=O)[nH]1 [5-Fluorouracil]; settings: max 20 µM
Method in brief: as §1

Savolitinib = compound: C[C@@H](c1ccc2nccn2c1)n1nnc2ncc(-c3cnn(C)c3)nc21 [Savolitinib]; settings: max 1 µM
Method in brief: as §1

AZD8186 = compound: C[C@@H](Nc1cc(F)cc(F)c1)c1cc(C(=O)N(C)C)cc2c(=O)cc(N3CCOCC3)oc12 [AZD8186]; settings: max 10 µM
Method in brief: as §1

Crizotinib = compound: C[C@@H](Oc1cc(-c2cnn(C3CCNCC3)c2)cnc1N)c1c(Cl)ccc(F)c1Cl [Crizotinib]; settings: max 10 µM
Method in brief: as §1

Palbociclib = compound: CC(=O)c1c(C)c2cnc(Nc3ccc(N4CCNCC4)cn3)nc2n(C2CCCC2)c1=O [Palbociclib]; settings: max 10 µM
Method in brief: as §1

AZD7648 = compound: Cc1cc2ncnn2cc1Nc1ncc2c(n1)n(C1CCOCC1)c(=O)n2C [AZD7648]; settings: max 10 µM
Method in brief: as §1

| Cell Line | IC50, cell viability 72 h (Dasatinib) [nM] | IC50, cell viability 72 h (Gemcitabine) [nM] | IC50, cell viability 72 h (Alisertib) [nM] | IC50, cell viability 72 h (SG3199) [nM] | IC50, cell viability 72 h (MK-2206) [nM] | IC50, cell viability 72 h (Paclitaxel) [nM] | IC50, cell viability 72 h (AZD1390) [nM] | IC50, cell viability 72 h (Olaparib) [nM] | IC50, cell viability 72 h (Doxorubicin) [nM] | IC50, cell viability 72 h (AZD5991) [nM] | IC50, cell viability 72 h (Selumetinib) [nM] | IC50, cell viability 72 h (Venetoclax) [nM] | IC50, cell viability 72 h (SN-38) [nM] | IC50, cell viability 72 h (Gefitinib) [nM] | IC50, cell viability 72 h (AZD5153) [nM] | IC50, cell viability 72 h [1] [nM] | IC50, cell viability 72 h (Etoposide) [nM] | IC50, cell viability 72 h (Prexasertib) [nM] | IC50, cell viability 72 h (AZD0156) [nM] | IC50, cell viability 72 h (SRA737) [nM] | IC50, cell viability 72 h (Lapatinib) [nM] | IC50, cell viability 72 h (Taselisib) [nM] | IC50, cell viability 72 h (Trametinib) [nM] | IC50, cell viability 72 h (AZD2811) [nM] | IC50, cell viability 72 h (AZD1775) [nM] | IC50, cell viability 72 h (AZD4320) [nM] | IC50, cell viability 72 h (AZD5363) [nM] | IC50, cell viability 72 h (AZD6738) [nM] | IC50, cell viability 72 h (Carboplatin) [nM] | IC50, cell viability 72 h (5-Fluorouracil) [nM] | IC50, cell viability 72 h (Savolitinib) [nM] | IC50, cell viability 72 h (AZD8186) [nM] | IC50, cell viability 72 h (Crizotinib) [nM] | IC50, cell viability 72 h (Palbociclib) [nM] | IC50, cell viability 72 h (AZD7648) [nM] |
| --- | --- | --- | --- | --- | --- | --- | --- | --- | --- | --- | --- | --- | --- | --- | --- | --- | --- | --- | --- | --- | --- | --- | --- | --- | --- | --- | --- | --- | --- | --- | --- | --- | --- | --- | --- |
| NCI-H2023 (Non-Small Cell Lung Carcinoma) | > 2000 | 134 | > 10000 | > 1 | > 10000 | 531 | > 300 | > 10000 | 225 | > 1000 | > 10000 | > 1000 | 110 | > 10000 | > 1000 | > 5000 | > 10000 | 30.6 | > 3000 | > 10000 | > 10000 | 3870 | > 1000 | > 1000 | 2020 | > 1000 | > 10000 | 3500 | > 10000 | 11900 | > 1000 | > 10000 | > 10000 | > 10000 | > 10000 |
| NCI-H2452 (Mesothelioma) | 531 | > 300 | 8630 | > 1 | > 10000 | 97 | > 300 | > 10000 | > 1000 | > 1000 | > 10000 | > 1000 | > 300 | > 10000 | > 1000 | > 5000 | > 10000 | 244 | > 3000 | > 10000 | > 10000 | > 10000 | > 1000 | > 1000 | 710 | > 1000 | > 10000 | > 10000 | > 10000 | > 20000 | > 1000 | > 10000 | > 10000 | > 10000 | > 10000 |
| NTERA-2-cl-D1 (Other Solid Carcinomas) | > 2000 | > 300 | 453 | > 1 | > 10000 | 415 | > 300 | > 10000 | 23.6 | > 1000 | > 10000 | > 1000 | 5.92 | > 10000 | 532 | > 5000 | > 10000 | > 1000 | > 3000 | > 10000 | > 10000 | > 10000 | > 1000 | > 1000 | > 3000 | > 1000 | > 10000 | > 10000 | > 10000 | > 20000 | > 1000 | > 10000 | > 10000 | > 10000 | > 10000 |
| OVKATE (Ovarian Carcinoma) | > 2000 | > 300 | > 10000 | > 1 | > 10000 | > 3000 | > 300 | > 10000 | > 1000 | > 1000 | > 10000 | > 1000 | > 300 | > 10000 | > 1000 | > 5000 | > 10000 | > 1000 | > 3000 | > 10000 | > 10000 | > 10000 | > 1000 | > 1000 | > 3000 | > 1000 | > 10000 | > 10000 | > 10000 | > 20000 | > 1000 | > 10000 | > 10000 | > 10000 | > 10000 |

— the supplement of paper PMC11061612
